Source: patent US9580444B2, “Polycyclic pyrazolinone derivative and herbicide comprising same as effective component thereof” (priority 2013, dated 2017)

Key:
Assay in all cases: Test Example-1: herbicidal effect by a treatment before weeds are generated under submerged conditions
Assay type in all cases: in vivo
Conditions in all cases: 500 g a.i/ha, pre-emergence treatment, about 15 days after treatment, score 0-5
[1] = system: Scirpus juncoides (bulrush)
Protocol: (§1) Using the formulation prepared according to the methods described above, the herbicidal effect of the bicyclic pyrazolinone derivative of the invention according to the methods shown in Test Examples below was examined. The herbicidal effect with respect to the test weeds or the phytotoxicity with respect to the test crops was examined according to the following criteria, and evaluated in six stage scores of 0 to 5.
(§2) A plastic cup of 30 cm^2 was filled with paddy soil, soil puddling was performed, seeds of Echinochloa oryzicola (barnyard grass), Cyperus difformis (smallflower umbrella plant), Monochoria vaginalis (monochoria), Scirpus juncoides (bulrush), and Eleocharis acicularis (needle spikerush), and Lindernia procumbens (common false pimpernel), Rotala indica (indian toothcup), Elatine triandra (waterwort) as other annual broad leaf weeds were seeded therein, and kept in a submerged state. A wettable powder or an emulsifiable concentrate of the compound of the present invention prepared according to Formulation Example was diluted on the weed seeding day, and a submersing treatment was performed so as to be a predetermined dosage. The herbicidal effect with respect to the test weeds about 15 days after the treatment was evaluated according to the evaluation criteria in six stages of 0 to 5 described above.

[2] = system: Echinochloa oryzicola (barnyard grass)
Protocol: as §1, §2

[3] = system: other annual broad leaf weeds (Lindernia procumbens, Rotala indica, Elatine triandra)
Protocol: as §1, §2

[4] = system: Monochoria vaginalis (monochoria)
Protocol: as §1, §2

[5] = system: Cyperus difformis (smallflower umbrella plant)
Protocol: as §1, §2

[6] = system: Eleocharis acicularis (needle spikerush)
Protocol: as §1, §2

C=CCOc1cc(Cl)ccc1Oc1cc(-c2c(Cl)n3n(c2=O)CCCC3)c(F)cc1Cl [Compound 3-38]
Herbicidal effect Scirpus juncoides [1]: 5 (Herbicidal effect/phytotoxicity was 90% or greater) | Herbicidal effect Echinochloa oryzicola [2]: 5 (Herbicidal effect/phytotoxicity was 90% or greater) | Herbicidal effect Broadleaf weed [3]: 5 (Herbicidal effect/phytotoxicity was 90% or greater) | Herbicidal effect Monochoria vaginalis [4]: 5 (Herbicidal effect/phytotoxicity was 90% or greater) | Herbicidal effect Cyperus difformis [5]: 5 (Herbicidal effect/phytotoxicity was 90% or greater) | Herbicidal effect Eleocharis acicularis [6]: 5 (Herbicidal effect/phytotoxicity was 90% or greater)

C=CCOc1ccc(Oc2cc(-c3c(Cl)n4n(c3=O)CCCC4)c(F)cc2Cl)cc1 [Compound 3-29]
Herbicidal effect Scirpus juncoides [1]: 5 (Herbicidal effect/phytotoxicity was 90% or greater) | Herbicidal effect Echinochloa oryzicola [2]: 5 (Herbicidal effect/phytotoxicity was 90% or greater) | Herbicidal effect Broadleaf weed [3]: 5 (Herbicidal effect/phytotoxicity was 90% or greater) | Herbicidal effect Monochoria vaginalis [4]: 5 (Herbicidal effect/phytotoxicity was 90% or greater) | Herbicidal effect Cyperus difformis [5]: 5 (Herbicidal effect/phytotoxicity was 90% or greater) | Herbicidal effect Eleocharis acicularis [6]: 5 (Herbicidal effect/phytotoxicity was 90% or greater)

C=C(C)COc1cc(-c2c(Cl)n3n(c2=O)CCCC3)c(F)cc1F [Example 1-106]
Herbicidal effect Scirpus juncoides [1]: 5 (Herbicidal effect/phytotoxicity was 90% or greater) | Herbicidal effect Echinochloa oryzicola [2]: 5 (Herbicidal effect/phytotoxicity was 90% or greater) | Herbicidal effect Broadleaf weed [3]: 5 (Herbicidal effect/phytotoxicity was 90% or greater) | Herbicidal effect Monochoria vaginalis [4]: 5 (Herbicidal effect/phytotoxicity was 90% or greater) | Herbicidal effect Cyperus difformis [5]: 5 (Herbicidal effect/phytotoxicity was 90% or greater) | Herbicidal effect Eleocharis acicularis [6]: 5 (Herbicidal effect/phytotoxicity was 90% or greater)

C=CCOc1cc(F)ccc1Oc1cc(-c2c(Cl)n3n(c2=O)CCCC3)c(F)cc1Cl [Compound 3-34]
Herbicidal effect Scirpus juncoides [1]: 5 (Herbicidal effect/phytotoxicity was 90% or greater) | Herbicidal effect Echinochloa oryzicola [2]: 5 (Herbicidal effect/phytotoxicity was 90% or greater) | Herbicidal effect Broadleaf weed [3]: 5 (Herbicidal effect/phytotoxicity was 90% or greater) | Herbicidal effect Monochoria vaginalis [4]: 5 (Herbicidal effect/phytotoxicity was 90% or greater) | Herbicidal effect Cyperus difformis [5]: 5 (Herbicidal effect/phytotoxicity was 90% or greater) | Herbicidal effect Eleocharis acicularis [6]: 5 (Herbicidal effect/phytotoxicity was 90% or greater)

O=c1c(-c2cc(Oc3cccnc3[N+](=O)[O-])c(Cl)cc2F)c(Cl)n2n1CCCC2 [Example 1-386]
Herbicidal effect Scirpus juncoides [1]: 5 (Herbicidal effect/phytotoxicity was 90% or greater) | Herbicidal effect Echinochloa oryzicola [2]: 5 (Herbicidal effect/phytotoxicity was 90% or greater) | Herbicidal effect Broadleaf weed [3]: 5 (Herbicidal effect/phytotoxicity was 90% or greater) | Herbicidal effect Monochoria vaginalis [4]: 5 (Herbicidal effect/phytotoxicity was 90% or greater) | Herbicidal effect Cyperus difformis [5]: 5 (Herbicidal effect/phytotoxicity was 90% or greater) | Herbicidal effect Eleocharis acicularis [6]: 5 (Herbicidal effect/phytotoxicity was 90% or greater)

O=c1c(-c2cc(OC3C=CCCC3)c(Cl)cc2F)c(Cl)n2n1CCCC2 (stereo not drawn) [Example 1-232]
Herbicidal effect Scirpus juncoides [1]: 5 (Herbicidal effect/phytotoxicity was 90% or greater) | Herbicidal effect Echinochloa oryzicola [2]: 5 (Herbicidal effect/phytotoxicity was 90% or greater) | Herbicidal effect Broadleaf weed [3]: 5 (Herbicidal effect/phytotoxicity was 90% or greater) | Herbicidal effect Monochoria vaginalis [4]: 5 (Herbicidal effect/phytotoxicity was 90% or greater) | Herbicidal effect Cyperus difformis [5]: 5 (Herbicidal effect/phytotoxicity was 90% or greater) | Herbicidal effect Eleocharis acicularis [6]: 5 (Herbicidal effect/phytotoxicity was 90% or greater)
